Article PMC7083565, “In vitro metabolism, reaction phenotyping, enzyme kinetics, CYP inhibition and induction potential of ataluren” (Pharmacology Research & Perspectives, 2020)
Like-named read-outs stand apart in the source and are kept apart here.

Legend:
Assay type in all cases: in vitro ADME
[1] = Plasma protein binding (ultrafiltration), mouse; conditions: male, C57/BL10, 50 to 50 000 ng/mL, mean ± SD, n = 3, read-out: percentage protein binding (converted)
Description: [^14C]‐Ataluren, at 50, 500, 5000, and 50 000 ng/mL or 0.175, 1.75, 17.5, and 175 µM, in male mouse, rat, dog, monkey, and human plasma, was incubated (n = 3) at 37°C for approximately 15 minutes, transferred into Centrifree® Micropartition Units (30 000 Da molecular weight cutoff, 1 mL capacity; Amicon Inc), and centrifuged at 37°C and 2000 g for approximately 10 minutes so that the amount of the sample filtered was approximately ≤ 20% of the total volume. After centrifugation, the entire ultrafiltrate was weighed and analyzed for radioactivity using liquid scintillation counting. The percent bound = (1‐Cu/Cm)×100, where Cu is the concentration of radioactivity in the ultrafiltrate and Cm is the concentration of radioactivity in the plasma before centrifugation.

[2] = Ataluren glucuronidation kinetics, human kidney microsomes; conditions: for CLint,u,UGT (scaled) / K m / K m, u / V max: HKM; for CLint,u,UGT (scaled): 12.8 mg protein/g tissue; for K m / K m, u / V max: mean ± SE; for K m / K m, u / V max / fraction unbound at 15 min: n = 3; for fraction unbound at 15 min / microsomal CLint: human, pH 7.5, HKM; for fraction unbound at 15 min: pooled human kidney microsomes incubation mixture, mean ± SD, read-out: fu,inc; for microsomal CLint: pooled human kidney microsomes, read-out: CLint,u,UGT
Description: (§1) Ataluren at 0.5, 2.5, 12.5, 25, 50, 100, 200, and 400 µmol/L, was incubated (n = 3) at 37°C with recombinant human UGT1A9 and with pooled microsomes from human liver, kidney, and intestine (0.025 mg protein/mL, preactivated with alamethicin at 20 µg/mL) in Tris‐HCl buffer (0.1 mol/L, pH 7.5), in the presence of 1 mmol/L EDTA, 5 mmol/L MgCl2, with or without 0.5%, 1%, or 2% BSA. The incubation (100 µL final volume with 0.5% DMSO) was started by adding an equal volume of UDPGA (5 mmol/L) in Tris‐HCl buffer (0.1 mol/L, pH 7.5). After 30 minutes incubation, the incubation mixtures were combined with 0.3 mL of an internal standard solution in acetonitrile with 1% formic acid, followed by membrane plate filtration. The filtrates were used for LC‐MS/MS analysis to quantify the formation of ataluren‐O‐1β‐acyl glucuronide. Detailed LC‐MS/MS conditions are summarized in LC‐MS/MS Analysis section. Ataluren acyl glucuronide formation rate after 30 minutes incubation was calculated using the amount of metabolite formed (pmol) divided by the protein amount in the incubation sample (0.0025 mg) and the incubation time (30 minutes). Ataluren glucuronidation kinetic parameters were determined with and without adjusting BSA binding by nonlinear regression (GraphPad Prism, 5version 5.04, GraphPad Software, Inc.) using Michaelis‐Menten equation which was the best fit compared with other models. The intrinsic clearance was calculated as CLint = Vmax/Km. In order to compare unbound intrinsic clearance by glucuronidation (CLint,u,UGT) in different tissues, CLint,u,UGT was expressed per gram of tissue by correcting the values for the microsomal protein yield, resulting in scaled CLint,u,UGT. Microsomal protein yields of 40.0, 12.8, and 20.6 mg protein/g tissue were used for hepatic, renal, and intestinal data, respectively. ^26
(§2) The high‐throughput membrane ultrafiltration method ^27 was used to determine the fraction unbound in the incubation (n = 3). Incubation mixtures and procedures were essentially the same as the above except that UDPGA (5 mmol/L) was replaced with Tris‐HCl buffer (0.1 mol/L, pH 7.5). After 15 minutes incubation, aliquot was transferred to a Millipore Multiscreen Ultracel‐10 filter plate (10 kDa molecular mass cut off; EMD Millipore). The plate was centrifuged at 37°C and 3710 g. After 30 minutes centrifugation, aliquots of ultrafiltrates and incubation mixtures prior to ultrafiltration were quenched with an internal standard solution in acetonitrile, followed by membrane plate filtration. The filtrates were used for LC‐MS/MS analysis to quantify the concentration of ataluren. The same LC‐MS/MS conditions described above are summarized in LC‐MS/MS Analysis section. The free fraction = Cu/Cm, where Cu is the concentration of ataluren in the ultrafiltrate and Cm is the concentration of ataluren in the incubation system before centrifugation. Unbound Km (Km, u) was recalculated by applying Michaelis‐Menten equation using free ataluren concentrations after correcting BSA binding at each ataluren and BSA concentration level.
(§3) Quantification of ataluren‐O‐1β‐acyl glucuronide formation was conducted on an Accela pump and a PAL autosampler equipped with a TSQ Quantum Ultra mass spectrometer (Thermo Fisher Scientific). A Waters Acquity BEH column (C18, 1.7 µm, 50 × 2.1 mm; Waters Cooperation) was used and maintained at 50°C. The mobile phases were 0.1% formic acid in water (A) and acetonitrile (B). The flow rate was 0.6 mL/min and gradient program was as follows: linear gradient from 0% B to 95% B in 0.5 minutes and hold isocratic at 95% B for 1 minute; linear gradient from 95% B to 0% B in 0.1 minutes and hold isocratic at 0% B for 0.4 minutes. TSQ Quantum Ultra mass spectrometer was equipped with a heated electrospray ionization source operated in negative‐ion mode with a vaporizer temperature of 350°C, capillary temperature of 380°C, and spray voltage of 3 kV. […]

UGT (glucuronidation) = test: as above; conditions: human, pooled human kidney microsomes, pH 7.5, HKM, 0% BSA; read-out: CLint,u,UGT
Description: as §1, §2, §3

O=C(O)c1cccc(-c2noc(-c3ccccc3F)n2)c1 [ataluren, Ataluren]
fraction unbound at 15 min [1]: 0.016
human kidney microsomes more active than human liver microsomes in ataluren glucuronidation, in terms of CLint,u/mg protein ([2]; HKM vs HLM): about 3.7 fold
CLint,u,UGT (scaled) ([2]; 0% BSA): 4.15 mL/min/g of tissue
K m ([2]; 0% BSA): 10.8 ± 1.40 µM
K m, u ([2]; 0% BSA): 10.8 ± 1.40 µM
V max ([2]; 0% BSA): 3948 ± 90.3 pmol/min/mg
CLint,u,UGT (scaled) ([2]; 0.5% BSA): 12.18 mL/min/g of tissue
K m ([2]; 0.5% BSA): 33.0 ± 7.36 µM
K m, u ([2]; 0.5% BSA): 3.09 ± 0.671 µM
V max ([2]; 0.5% BSA): 2941 ± 168 pmol/min/mg
CLint,u,UGT (scaled) ([2]; 1% BSA): 20.0 mL/min/g of tissue
K m ([2]; 1% BSA): 36.5 ± 6.31 µM
K m, u ([2]; 1% BSA): 1.64 ± 0.334 µM
V max ([2]; 1% BSA): 2563 ± 137 pmol/min/mg
CLint,u,UGT (scaled) ([2]; 2% BSA): 16.5 mL/min/g of tissue
K m ([2]; 2% BSA): 74.1 ± 8.38 µM
K m, u ([2]; 2% BSA): 1.82 ± 0.291 µM
V max ([2]; 2% BSA): 2342 ± 119 pmol/min/mg
maximal effect of BSA on CLint,u (increase) ([2]; human kidney microsomes, with vs without BSA): ~4.8 fold
fraction unbound at 15 min ([2]; 0% BSA): 1 ± 0.121
fraction unbound at 15 min ([2]; 0.5% BSA): 0.095 ± 0.003
fraction unbound at 15 min ([2]; 1% BSA): 0.05 ± 0.002
fraction unbound at 15 min ([2]; 2% BSA): 0.03 ± 0.003
microsomal CLint ([2]; 0.5% BSA): 952 µL/min/mg
microsomal CLint ([2]; 1% BSA): 1560 µL/min/mg
microsomal CLint ([2]; 2% BSA): 1290 µL/min/mg
microsomal CLint (UGT (glucuronidation)): 324 µL/min/mg
